{"source": "patent EP0680964B1", "about": "“PYRROLO [3,2-e]INDOLE DERIVATIVES, PROCESS FOR THE PREPARATION THEREOF AND THEIR USE” (UNIVERSIDAD DE SANTIAGO DE COMPOSTELA, priority 1993, dated 1995)", "key": {"[1]": {"test_system": "P388 leukemic tumor model", "assay": "P388 antitumoral model in vivo (survival time, i.p. treatment)", "set-up": "species or system mice", "conditions": "for %C/T: average survival of tested group/average survival of controls", "procedure": "Normally, 1x10^6 cells in ascitic fluid was implanted i.p. in CD2F1 mice. Treatment with the agent tested i.p. began one day after the tumor had been implanted and it is continued daily up to a total of 5 injections for synthetic products and of 9 injections for raw natural products. The results are expressed as percentage of the control survival time.\nCDFl mice weighing 18-22 gr (+/- 3 gr) were implanted on day 0 of the test period o.1 ml. of a dilution of 1.0x10^7 tumor cells coming from DBA/2N mice used for the propagation of the tumor.\nOn day 1 of the test period the animals were grouped at random in groups of six animals.Each group is weighed and the average weight is written down. Each compound to be tested in diluted in 4 levels of dosis for each multidose test as of the determination of the highest nontoxic dose (v.g. 400 mg/kg; 100 mg/kg; 10 mg/kg.)\nAdministration of the test compounds is started on day 1 using volumns of 1/2 drug injected i.p. Injections are given on days 1 to 9 of the test period, unless it is indicated to the contrary. The animals are weighed on day 5, which is the one which in this system is considered the day of toxicity. Toxicity in this test system is defined as: • A. 34 % deaths up to day 5 - acute toxicity • B. C/T<85% - chronic toxicity • C. A negative average of the weight change of the animals> 4 g up to day 5 - chronic toxicity\nThe data obtained upon testing the compounds in vivo in comparison with the P388 leukemic tumor model in mice are shown in the following table: […]"}, "[2]": {"conditions": "mice, therapeutic doses; cited from earlier work"}, "P388 model": {"test_system": "P388 model", "conditions": "cited from earlier work"}, "A-549": {"test_system": "A-549", "assay": "In vitro test, IC50 on A-549", "assay_type": "cell-based", "conditions": "Homo sapiens, A549; A-549, in vitro", "from_the_text": "(§1) On the other hand, the results of the tests in vitro carried out on compounds (IIIa) and (IIIb) were the following: […]"}, "HT-29": {"test_system": "HT-29", "assay": "In vitro test, IC50 on HT-29", "assay_type": "cell-based", "conditions": "Homo sapiens; HT-29, in vitro", "from_the_text": "as §1"}, "MEL-28": {"test_system": "MEL-28", "assay": "In vitro test, IC50 on MEL-28", "assay_type": "cell-based", "conditions": "Homo sapiens, SK-MEL-28; MEL-28, in vitro", "from_the_text": "as §1"}, "P-388": {"test_system": "P-388", "assay": "In vitro test, IC50 on P-388", "assay_type": "cell-based", "conditions": "Mus musculus, P388; P-388, in vitro", "from_the_text": "as §1"}}}
{"compound": "COC(=O)c1cc2c(n1C)C(=O)C=C1N(C(=O)c3cc4cc(OC)c(OC)c(OC)c4[nH]3)CC3CC123", "note": "(centres unmarked) [(VI), methyl 2-(5,6,7-trimethoxy-1H-indole-2-carbonyl)-5-methyl-4-oxo-1,2,4,5,8a-hexahydrocyclopropa[c]pyrrolo[3,2-e]indole-7-carboxylate]", "values": [{"measurement": "%C/T", "setting": "[1]; inject. dose 0.500 mg/kg", "value": 210.9, "unit": "%"}, {"measurement": "Significant activity (class of %C/T)", "setting": "[1]; inject. dose 0.500 mg/kg", "value": "** (Significant activity (strong): C/T > =175%)"}]}
{"compound": "Cc1c[nH]c2c1[C@@]13C[C@@H]1CN(C(=O)c1cc4cc(NC(=O)c5cc6ccccc6o5)ccc4[nH]1)C3=CC2=O", "note": "[Adocelesine]", "values": [{"measurement": "delayed lethality", "setting": "[2]", "value": "without provoking delayed lethality"}]}
{"compound": "O=C(Nc1ccc2[nH]c(C(=O)N3CC4CC45C3=CC(=O)c3ccccc35)cc2c1)c1cc2ccccc2[nH]1", "note": "(centres unmarked) [CBI-Ind2]", "values": [{"measurement": "results in the P388 model in vivo", "setting": "P388 model", "value": "very good results"}]}
{"compound": "COc1c(O)c2c(c3cc(C(=O)N4CCc5c4c(O)c(OC)c4[nH]c(C(=O)N6CC7CC78C6=CC(=O)c6[nH]cc(C)c68)cc54)[nH]c13)CCN2C(N)=O", "note": "(centres unmarked) [CC-1065]", "values": [{"measurement": "delayed lethality", "setting": "[2]", "value": "producing delayed deaths in mice at therapeutic doses"}]}
{"compound": "COC(=O)c1cn(C)c2c(O)cc3c(c12)C(CCl)CN3C(=O)c1cc2cc(NC(=O)c3cc4ccccc4o3)ccc2[nH]1", "note": "(centres unmarked) [Compound (III), methyl 6-{5-[(benzofuran-2-ylcarbonyl)-amino]1H-indole-2-carbonyl}-8-chloromethyl-4-hydroxy-3-methyl-3,6,7,8,tetrahydropyrrolo[3,2-e]indole-1-carboxylate]", "values": [{"measurement": "%C/T", "setting": "[1]; inject. dose 0.500 mg/kg", "value": ">391.3", "unit": "%"}]}
{"compound": "COC(=O)c1cn(C)c2c(O)cc3c(c12)C(CCl)CN3C(=O)c1cc2cc(OC)c(OC)c(OC)c2[nH]1", "note": "(centres unmarked) [Compound (V), methyl 6-(5,6,7-trimethoxy-1H-indole-2-carbonyl)-8-chloromethyl-4-hydroxy-3-methyl-3,6,7,8-tetrahydropyrrololo[3,2-e]indole-1-carboxylate]", "values": [{"measurement": "%C/T", "setting": "[1]; inject. dose 0.050 mg/kg", "value": 133.9, "unit": "%"}, {"measurement": "Significant activity (class of %C/T)", "setting": "[1]; inject. dose 0.050 mg/kg", "value": "** (Significant activity (strong): C/T > =175%)"}]}
{"compound": "COC(=O)c1cn(C)c2c(OC(C)=O)cc3c(c12)C(CCl)CN3C(=O)c1cc2cc(NC(=O)c3cc4ccccc4o3)ccc2[nH]1", "note": "(centres unmarked) [IIIa, methyl 4-acetoxy-6-{5-[(benzofuran-2-yl-carbonyl)-amino]1H-indole-2-carbonyl}-8-chloromethyl-3-methyl-3,6,7,8-tetrahydropyrrolo[3,2-e]indole-1-carboxylate]", "values": [{"measurement": "IC50", "setting": "A-549", "value": 0.05, "unit": "ng/mL"}, {"measurement": "IC50", "setting": "HT-29", "value": 0.25, "unit": "ng/mL"}, {"measurement": "IC50", "setting": "MEL-28", "value": 0.25, "unit": "ng/mL"}, {"measurement": "IC50", "setting": "P-388", "value": 0.01, "unit": "ng/mL"}]}
{"compound": "methyl 2-[5-[(benzofuran-2-ylcarbonyl) amino]-1H-indol-2-carbonyl]-5-methyl-4-oxo,1,2,4,5,8,8,a-hexahydrocyclopropa[c]pyrrolo[3,2-e]indole-7-carboxylate [(IV)]", "values": [{"measurement": "%C/T", "setting": "[1]; inject. dose 0.300 mg/kg", "value": 251.1, "unit": "%"}, {"measurement": "Significant activity (class of %C/T)", "setting": "[1]; inject. dose 0.300 mg/kg", "value": "** (Significant activity (strong): C/T > =175%)"}]}
